Patent US9840478B2 (MERCK SHARP & DOHME CORP., priority 2013, dated 2017)

System: HIV-1 (H9IIIB strain)
Assay: Cell-based HIV infection assay using a reporter (Cell-Based), MT4-GFP cells
Settings: Human immunodeficiency virus 1, MT4-GFP cells infected with HIV-1 H9IIIB; 50% normal human serum; mean of at least two independent experiments; read-out: Cell-based IP
Method in brief: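 MT4-GFP cells (HIV LTR-driven GFP) infected 24 h with HIV-1 H9IIIB at low MOI, then washed and plated with compounds in RPMI + 50% normal human serum, 0.4% DMSO final. Green cells counted at 24 and 48 h; R0 = 48 h/24 h ratio, inhibition normalized to DMSO and triple-drug control; IC50 from 4-parameter fit.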

Compound | IC50 [nM]
COC(=O)N[C@H](C(=O)Nc1cccc(F)c1CC[C@H]1CNC[C@H](C)N1S(=O)(=O)C1CC1)[C@@H](c1ccc(Cl)cc1)c1ccc(OC)nc1 [Example 151, (βS)-4-chloro-N-(2-{2-[(2S,6S)-1-(cyclopropylsulfonyl)-6-methylpiperazin-2-yl]ethyl}-3-fluorophenyl)-Nα-(methoxycarbonyl)-β-(6-methoxypyridin-3-yl)-L-phenylalaninamide] | 17
COC(=O)N[C@H](C(=O)Nc1cccc(F)c1CC[C@H]1CNC[C@@H](C)N1S(=O)(=O)C1CC1)[C@@H](c1ccc(Cl)cc1)c1ccc(OC)nc1 [Example 153, (βS)-4-chloro-N-(2-{2-[(2S,6R)-1-(cyclopropylsulfonyl)-6-methylpiperazin-2-yl]ethyl}-3-fluorophenyl)-Nα-(methoxycarbonyl)-β-(6-methoxypyridin-3-yl)-L-phenylalaninamide] | 28
C[C@H]1CNC[C@H](CCc2c(F)cccc2NC(=O)[C@@H](N)[C@H](c2cccc(F)c2)c2cccc(Cl)c2)N1S(=O)(=O)c1ccccc1 [Example 154, (βR)-3-chloro-N-(3-fluoro-2-{2-[(2S,6S)-6-methyl-1-(phenylsulfonyl)piperazin-2-yl]ethyl}phenyl)-β-(3-fluorophenyl)-L-phenylalaninamide] | 65
COC(=O)N[C@H](C(=O)Nc1cccc(F)c1CC[C@H]1CNC[C@H](C)N1S(=O)(=O)c1ccccc1)[C@H](c1cccc(F)c1)c1cccc(Cl)c1 [Example 155, (βR)-3-chloro-N-(3-fluoro-2-{2-[(2S,6S)-6-methyl-1-(phenylsulfonyl)piperazin-2-yl]ethyl}phenyl)-β-(3-fluorophenyl)-Nα-(methoxycarbonyl)-L-phenylalaninamide] | 67
COc1ccc(S(=O)(=O)N2[C@@H](CCc3c(F)cccc3NC(=O)[C@@H](N)C(c3cccc(F)c3)c3cccc(F)c3)CNC[C@@H]2C)cc1 [Example 156, 3-fluoro-N-[3-fluoro-2-(2-{(2S,6S)-1-[(4-methoxyphenyl)sulfonyl]-6-methylpiperazin-2-yl}ethyl)phenyl]-β-(3-fluorophenyl)-L-phenylalaninamide] | 14
COC(=O)N[C@H](C(=O)Nc1cccc(F)c1CC[C@H]1CNC[C@H](C)N1S(=O)(=O)c1ccc(OC)cc1)C(c1cccc(F)c1)c1cccc(F)c1 [Example 157, 3-fluoro-N-[3-fluoro-2-(2-{(2S,6S)-1-[(4-methoxyphenyl)sulfonyl]-6-methylpiperazin-2-yl}ethyl)phenyl]-β-(3-fluorophenyl)-Nα-(methoxycarbonyl)-L-phenylalaninamide] | 7.3
C[C@H]1CNC[C@H](CCc2c(F)cccc2NC(=O)[C@@H](N)C(c2cccc(F)c2)c2cccc(F)c2)N1S(=O)(=O)C1CC1 [Example 158, N-(2-{2-[(2S,6S)-1-(cyclopropylsulfonyl)-6-methylpiperazin-2-yl]ethyl}-3-fluorophenyl)-3-fluoro-β-(3-fluorophenyl)-L-phenylalaninamide] | 75
COC(=O)N[C@H](C(=O)Nc1cccc(F)c1CC[C@H]1CNC[C@H](C)N1S(=O)(=O)C1CC1)C(c1cccc(F)c1)c1cccc(F)c1 [Example 159, N-(2-{2-[(2S,6S)-1-(cyclopropylsulfonyl)-6-methylpiperazin-2-yl]ethyl}-3-fluorophenyl)-3-fluoro-β-(3-fluorophenyl)-Nα-(methoxycarbonyl)-L-phenylalaninamide] | 42
C[C@@H]1CNC[C@H](CCc2c(F)cccc2NC(=O)[C@@H](N)[C@@H](c2ccc(Cl)cc2)C2CCOCC2)N1S(C)(=O)=O [Example 160, (βR)-4-chloro-N-(3-fluoro-2-{2-[(2S,6R)-6-methyl-1-(methylsulfonyl)piperazin-2-yl]ethyl}phenyl)-β-(tetrahydro-2H-pyran-4-yl)-L-phenylalaninamide] | 190
COc1ccc(S(=O)(=O)N2[C@@H](CCc3c(F)cccc3NC(=O)[C@@H](N)[C@H](c3cccc(F)c3)c3cccc(Cl)c3)CNC[C@@H]2C)cc1 [Example 162, (βR)-3-chloro-N-[3-fluoro-2-(2-{(2S,6S)-1-[(4-methoxyphenyl)sulfonyl]-6-methylpiperazin-2-yl}ethyl)phenyl]-β-(3-fluorophenyl)-L-phenylalaninamide] | 22
COC(=O)N[C@H](C(=O)Nc1cccc(F)c1CC[C@H]1CNC[C@H](C)N1S(=O)(=O)c1ccc(OC)cc1)[C@H](c1cccc(F)c1)c1cccc(Cl)c1 [Example 163, (βR)-3-chloro-N-[3-fluoro-2-(2-{(2S,6S)-1-[(4-methoxyphenyl)sulfonyl]-6-methylpiperazin-2-yl}ethyl)phenyl]-β-(3-fluorophenyl)-Nα-(methoxycarbonyl)-L-phenylalaninamide] | 20
COc1ccc([C@H](c2ccc(Cl)cc2)[C@H](N)C(=O)Nc2cccc(F)c2CC[C@H]2CNC[C@H](C)N2S(C)(=O)=O)cn1 [Example 164, (βS)-4-chloro-N-(3-fluoro-2-{2-[(2S,6S)-6-methyl-1-(methylsulfonyl)piperazin-2-yl]ethyl}phenyl)-β-(6-methoxypyridin-3-yl)-L-phenylalaninamide] | 37
COC(=O)N[C@H](C(=O)Nc1cccc(F)c1CC[C@H]1CNC[C@H](C)N1S(C)(=O)=O)[C@@H](c1ccc(Cl)cc1)c1ccc(OC)nc1 [Example 165, (βS)-4-chloro-N-(3-fluoro-2-{2-[(2S,6S)-6-methyl-1-(methylsulfonyl)piperazin-2-yl]ethyl}phenyl)-Nα-(methoxycarbonyl)-β-(6-methoxypyridin-3-yl)-L-phenylalaninamide] | 17
C[C@H]1CNC[C@H](CCc2c(F)cncc2NC(=O)[C@@H](N)[C@@H](c2ccc(Cl)cc2)c2cccc(F)c2)N1S(=O)(=O)C1CC1 [Example 166, (βS)-4-chloro-N-(4-{2-[(2S,6S)-1-(cyclopropylsulfonyl)-6-methylpiperazin-2-yl]ethyl}-5-fluoropyridin-3-yl)-β-(3-fluorophenyl)-L-phenylalaninamide] | 29
C[C@H]1CNC[C@H](CCc2c(F)cccc2NC(=O)[C@@H](N)[C@@H](c2ccc(Cl)cc2)c2cccc(F)c2)N1S(=O)(=O)C1CC1 [Example 167, (βS)-4-chloro-N-(2-{2-[(2S,6S)-1-(cyclopropylsulfonyl)-6-methylpiperazin-2-yl]ethyl}-3-fluorophenyl)-β-(3-fluorophenyl)-L-phenylalaninamide] | 31
COC(=O)N[C@H](C(=O)Nc1cccc(F)c1CC[C@H]1CNC[C@H](C)N1S(=O)(=O)C1CC1)[C@@H](c1ccc(Cl)cc1)c1cccc(F)c1 [Example 168, (βS)-4-chloro-N-(2-{2-[(2S,6S)-1-(cyclopropylsulfonyl)-6-methylpiperazin-2-yl]ethyl}-3-fluorophenyl)-β-(3-fluorophenyl)-Nα-(methoxycarbonyl)-L-phenylalaninamide] | 19
C[C@@H]1CNC[C@H](CCc2c(F)cccc2NC(=O)[C@@H](N)[C@H](c2cccc(F)c2)c2cccc(Cl)c2)N1S(C)(=O)=O [Example 169, (βR)-3-chloro-N-(3-fluoro-2-{2-[(2S,6R)-6-methyl-1-(methylsulfonyl)piperazin-2-yl]ethyl}phenyl)-β-(3-fluorophenyl)-L phenylalaninamide] | 170
C[C@H]1CNC[C@H](CCc2c(F)cccc2NC(=O)[C@@H](N)C(c2cccc(F)c2)c2cccc(F)c2)N1S(C)(=O)=O [Example 170, 3-fluoro-N-(3-fluoro-2-{2-[(2S,6S)-6-methyl-1-(methylsulfonyl)piperazin-2-yl]ethyl}phenyl)-β-(3-fluorophenyl)-L-phenylalaninamide] | 60
COC(=O)N[C@H](C(=O)Nc1cccc(F)c1CC[C@H]1CNC[C@H](C)N1S(C)(=O)=O)C(c1cccc(F)c1)c1cccc(F)c1 [Example 171, 3-fluoro-N-(3-fluoro-2-{2-[(2S,6S)-6-methyl-1-(methylsulfonyl)piperazin-2-yl]ethyl}phenyl)-β-(3-fluorophenyl)-Nα-(methoxycarbonyl)-L-phenylalaninamide] | 26
C[C@H]1CNC[C@H](CCc2c(F)cccc2NC(=O)[C@@H](N)[C@H](c2cccc(F)c2)c2cccc(Cl)c2)N1S(C)(=O)=O [Example 172, (βR)-3-chloro-N-(3-fluoro-2-{2-[(2S,6S)-6-methyl-1-(methylsulfonyl)piperazin-2-yl]ethyl}phenyl)-β-(3-fluorophenyl)-L-phenylalaninamide] | 180
COC(=O)N[C@H](C(=O)Nc1cccc(F)c1CC[C@H]1CNC[C@@H](C)N1S(C)(=O)=O)[C@H](c1cccc(F)c1)c1cccc(Cl)c1 [Example 173, (βR)-3-chloro-N-(3-fluoro-2-{2-[(2S,6R)-6-methyl-1-(methylsulfonyl)piperazin-2-yl]ethyl}phenyl)-β-(3-fluorophenyl)-Nα-(methoxycarbonyl)-L-phenylalaninamide] | 90
COC(=O)N[C@H](C(=O)Nc1cccc(F)c1CC[C@H]1CNC[C@H](C)N1S(C)(=O)=O)[C@H](c1cccc(F)c1)c1cccc(Cl)c1 [Example 174, (βR)-3-chloro-N-(3-fluoro-2-{2-[(2S,6S)-6-methyl-1-(methylsulfonyl)piperazin-2-yl]ethyl}phenyl)-β-(3-fluorophenyl)-Nα-(methoxycarbonyl)-L-phenylalaninamide] | 99
COC(=O)N[C@H](C(=O)Nc1cccc(F)c1CC[C@H]1CNC[C@H](C)N1S(=O)(=O)C1CC1)[C@H](c1cccc(F)c1)c1cccc(Cl)c1 [Example 175, (βR)-3-chloro-N-(2-{2-[(2S,6S)-1-(cyclopropylsulfonyl)-6-methylpiperazin-2-yl]ethyl}-3-fluorophenyl)-β-(3-fluorophenyl)-Nα-(methoxycarbonyl)-L-phenylalaninamide] | 110
C[C@H]1CNC[C@H](CCc2c(F)cccc2NC(=O)[C@@H](N)[C@H](c2cccc(F)c2)c2cccc(Cl)c2)N1S(=O)(=O)C1CC1 [Example 176, (βR)-3-chloro-N-(2-{2-[(2S,6S)-1-(cyclopropylsulfonyl)-6-methylpiperazin-2-yl]ethyl}-3-fluorophenyl)-β-(3-fluorophenyl)-L-phenylalaninamide] | 190
